Measurements from paper PMC3898838, “Design, Synthesis, and Biological Evaluation of an Allosteric Inhibitor of HSET that Targets Cancer Cells with Supernumerary Centrosomes” (Chemistry & Biology, 2013).

Columns and labels:
[1] = biological target: T1, full-length, N-terminal, 6His-tagged human HSET (Homo sapiens, UniProt Q9BW19); assay: In vitro enzymatic ATPase assay (ADP-Glo), MT-stimulated activity; format: biochemical; conditions: for reduction of HSET ATPase function: first-pass enzymatic assay, at 100 μM, n = 3
T1 construct: The protocol was optimized for use with full-length, N-terminal, 6His-tagged HSET and KSP; made in house; host or cells: Sf9 insect cells (baculovirus, pFastBac1)
T1 sequence (Q9BW19 1-673): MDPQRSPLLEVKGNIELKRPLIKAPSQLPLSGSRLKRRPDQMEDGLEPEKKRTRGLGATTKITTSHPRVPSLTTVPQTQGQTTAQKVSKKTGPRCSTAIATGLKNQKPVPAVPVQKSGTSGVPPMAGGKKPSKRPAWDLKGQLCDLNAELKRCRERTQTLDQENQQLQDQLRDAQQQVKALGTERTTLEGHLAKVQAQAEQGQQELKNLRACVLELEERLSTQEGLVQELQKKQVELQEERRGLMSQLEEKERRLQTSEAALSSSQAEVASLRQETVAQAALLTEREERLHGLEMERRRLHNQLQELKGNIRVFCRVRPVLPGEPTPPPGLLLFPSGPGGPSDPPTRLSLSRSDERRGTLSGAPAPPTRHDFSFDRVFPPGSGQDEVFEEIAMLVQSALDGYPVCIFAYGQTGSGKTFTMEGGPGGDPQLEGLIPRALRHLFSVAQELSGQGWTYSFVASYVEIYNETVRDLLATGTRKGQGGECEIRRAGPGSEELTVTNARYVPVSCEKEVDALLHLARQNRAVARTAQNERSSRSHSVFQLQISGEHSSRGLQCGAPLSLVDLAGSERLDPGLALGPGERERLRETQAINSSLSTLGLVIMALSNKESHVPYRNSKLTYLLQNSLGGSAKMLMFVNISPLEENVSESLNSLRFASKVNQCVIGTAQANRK
Source text: (§1) The similarity decreases to 56% in the loop 5 binding cleft alone (residues 422–432; Figure 1A). Given the high degree of similarity between the proteins, and the potential for selective binding in the loop 5 cleft, the chemogenomics principle that similar proteins bind similar ligands was applied to HSET and KSP, and an in silico model for HSET binding was developed based on nearly 500 existing inhibitors of KSP in the ChEMBL database (see Experimental Procedures for details; [Klabunde, 2007]). Using the model parameters, we selected 200 compounds (in silico) from 20 million possibilities and further triaged them into 50 ligands that scored highest in the bioactivity model. We acquired and tested these ligands for in vitro activity using an ADP-Glo enzymatic assay (see Experimental Procedures for details; Figure 1B).
(§2) The protocol was optimized for use with full-length, N-terminal, 6His-tagged HSET and KSP, and measured the MT-stimulated activity of the proteins. Inhibition of the […] of HSET/KSP was observed spectrophotometrically by coupling the hydrolysis of ATP to oxidation of NADH via pyruvate kinase/lactate dehydrogenase reactions. The assay was initiated by […] an assay mixture containing the following components (final concentration): 6 nM protein, 0.07 mg/ml MTs (University Biologicals), […], 2 mM ATP, 2.7 mM MgCI, 1 mM phospho(enol)-pyruvate, 0.2 mM NADH, 50 μg/ml lactate dehydrogenase, 100 μg/ml pyruvate kinase, and various concentrations of inhibitor all in 50 mM Na PIPES (pH 6.8) at 37°C. The ADP-Glo detection assay (Promega) was performed as described in the manufacturer’s instructions. All compound additions were performed using a multidrop BioMek Nxp (Beckman Coulter). Plates were read using a Pherastar microplate reader (BMG Labtech).

[2] = biological target: T2, full-length, N-terminal, 6His-tagged KSP (Homo sapiens, UniProt P52732); assay: as above; format: biochemical; conditions: concentrations up to 250 μM, mean ± SD
T2 construct: IC50 values for CW069 and 3 against full-length, N-terminal, 6His-tagged HSET and KSP; made in house
T2 sequence (P52732 1-1056): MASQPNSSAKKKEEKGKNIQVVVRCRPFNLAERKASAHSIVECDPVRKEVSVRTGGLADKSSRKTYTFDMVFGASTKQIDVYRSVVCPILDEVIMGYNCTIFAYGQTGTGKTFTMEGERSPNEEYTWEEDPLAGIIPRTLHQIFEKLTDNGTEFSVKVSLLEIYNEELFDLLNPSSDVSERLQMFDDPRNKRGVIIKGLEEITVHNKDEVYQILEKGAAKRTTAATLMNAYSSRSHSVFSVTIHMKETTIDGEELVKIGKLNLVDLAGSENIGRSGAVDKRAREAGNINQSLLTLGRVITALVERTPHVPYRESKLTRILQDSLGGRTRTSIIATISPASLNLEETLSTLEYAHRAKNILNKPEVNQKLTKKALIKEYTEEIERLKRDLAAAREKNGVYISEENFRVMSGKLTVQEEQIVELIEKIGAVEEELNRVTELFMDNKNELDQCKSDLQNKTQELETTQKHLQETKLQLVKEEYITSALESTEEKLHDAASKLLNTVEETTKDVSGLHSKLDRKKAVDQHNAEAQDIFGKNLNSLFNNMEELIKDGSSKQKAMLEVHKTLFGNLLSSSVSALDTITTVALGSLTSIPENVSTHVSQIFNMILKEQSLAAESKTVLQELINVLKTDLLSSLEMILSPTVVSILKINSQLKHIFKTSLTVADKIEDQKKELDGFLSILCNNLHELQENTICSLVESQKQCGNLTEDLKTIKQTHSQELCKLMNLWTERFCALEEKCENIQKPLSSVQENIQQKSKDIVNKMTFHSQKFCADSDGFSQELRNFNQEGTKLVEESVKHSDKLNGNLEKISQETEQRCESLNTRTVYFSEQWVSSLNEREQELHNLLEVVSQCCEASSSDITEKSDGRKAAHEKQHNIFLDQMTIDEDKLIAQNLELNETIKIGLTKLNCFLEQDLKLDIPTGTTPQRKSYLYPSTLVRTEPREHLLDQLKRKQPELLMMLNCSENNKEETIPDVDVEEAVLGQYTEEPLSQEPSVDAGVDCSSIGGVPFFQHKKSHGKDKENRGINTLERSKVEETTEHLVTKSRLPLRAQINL
Source text: as §1, §2

[3] = tested on: HeLa cells; assay: Time-lapse video microscopy, mitotic duration, arrest and exit; format: cell-based, human; conditions: 200 μM CW069, 100 μM monastrol
Procedure: HSET is known to antagonize the activity of the related kinesin, KSP, during spindle formation ([Mountain et al., 1999]). Therefore, we used time-lapse video microscopy to investigate whether CW069-treated cells transit mitosis with normal kinetics, and whether the characteristic mitotic arrest induced by inhibition of KSP ([Mayer et al., 1999]) could be suppressed by cotreatment with CW069. To this end, HeLa cells were treated with either DMSO control (0.2%), 200 μM CW069, 100 μM monastrol, or CW069+monastrol for 60 min before being imaged every 5 min for a further 360 min. Mitotic duration (MD) was defined as the period of time between when the cells began to round up and the onset of anaphase. No statistical difference was recorded between control cells and cells treated with 200 μM CW069 (MD 55 ± 7 and 53 ± 6 min, respectively, Figures 6A, 6B, and S7). […] This effect was reversed to a large extent by cotreatment of CW069 with monastrol. […] This is consistent with observations previously reported for KSP-depleted cells ([Mountain et al., 1999]). […] Cells were synchronized in G2-M by incubation at 37°C and 5% CO2 for 24 hr with 9 μM of the CDK1 inhibitor RO-3306 (Merck). Cells were released by removal of the RO-3306 and four washings of 10 min each, at 37°C, with prewarmed culture media + 10% FBS. N1E-115 cells were transfected with siRNA (Supplemental Experimental Procedures) and imaged from 6 hr after transfection. Some RO-3306-synchronized cells were released with 200 μM CW069, 100 μM monastrol, or 0.2% DMSO, and imaging started immediately or 1 hr after treatment. Imaging was carried out for 24 hr, or for 4 hr in the case of the CW069/monastrol cotreatment. Imaging was conducted every 5 min in a humidified chamber with 37°C and 5% CO2, using a Nikon Eclipse TE2000-E microscope, and analyzed with NIS-Elements software (Nikon, Tokyo, Japan). The morphology of cells in mitosis and the mitotic fate (bipolar division, multipolar division, or cell death) were analyzed.

[4] = tested on: HeLa cells; assay: Immunofluorescence after time-lapse imaging, monopolar/bipolar spindles; format: cell-based, human; conditions: 200 μM CW069, 100 μM monastrol, 40 mitotic cells
Source text: Immediately after time-lapse imaging, cells were fixed and antibodies against α-tubulin, CDK5RAP2, and DAPI were employed to visualize MTs, centrosomes, and DNA, respectively. […] Control HeLa cells formed mainly bipolar spindles (92%), with two centrosomes positioned at the spindle poles on either side of the metaphase plate (Figure 6C; Table 1). Similar numbers of bipolar spindles were formed in CW069-treated cells (95%; Figure 6C; Table 1). Monastrol-treated cells almost exclusively formed monopolar spindles (97%) with one pole surrounded by DNA ([Luo et al., 2004]; Figure 6C; Table 1). Normal bipolar spindle formation was indeed restored for many cells (45%) when the HSET inhibitor CW069 was administered along with the KSP inhibitor monastrol (Figure 6C; Table 1).
Cells were plated at a seeding density of 1.2 × 10^4 cells per well in Ibidi eight-well chamber slides, incubated for 24 hr, and then treated with compound for 3 hr. Prewarmed 4% paraformaldehyde in PBS was then added to each well to fix the cells before washing with PBS. Permeabilization and blocking was performed by incubating the slides with 1% BSA, 0.3% Triton X-100, 5% goat serum in PBS (PBS/B/0.3%T+5%GS) for 1 hr while shaking them at room temperature (RT). The slides were incubated with primary antibody solutions (mouse monoclonal anti-α-Tubulin [catalog number T9026; Sigma-Aldrich] and rabbit anti-CDK5RAP2 [catalog number A300-554A; Bethyl Laboratories]) at 4°C for 16 hr. The slides were washed four times with PBS/B/0.3%T+5%GS and then incubated with secondary antibody solutions (anti-rabbit IgG Alexa Fluor 488 [catalog number A21206] and anti-mouse IgG Alexa Fluor 647 [catalog number A20990]; Invitrogen) and DAPI (catalog number D3571; Invitrogen) in deionized water (300 nM) in the dark at RT for 1 hr. After four washes with PBS/B/0.3%T+5%GS, the solution was replaced with PBS and the slides were stored at 4°C until imaging was performed. Images were gathered with the use of an ICys Research Imaging Cytometer (CompuCyte) or a tandem confocal microscope (Leica).

[5] = >200 cells that entered mitosis >60 min after treatment

Question: How did the “reduction of HSET ATPase function” value [1] turn out when `O=C(c1ccc(N2CCCc3ccccc32)s1)n1ccnc1` [compound 1] was run?
Answer: Its value is > 60%.

Question: How did the “reduction of HSET ATPase function” value [1] turn out when `O=C(O)c1cc(I)ccc1NC1C(=O)OC(c2ccccc2)C1c1ccccc1` (stereo not shown) [compound 2] was run?
Answer: Its value is > 60%.

Question: For `O=C(O)c1cc(Cl)c(Cl)cc1C(=O)N(Cc1ccccc1)Cc1ccccc1` [compound 3], which IC50 ([1]; concentrations up to 250 μM, mean ± SD) is on record?
Answer: The IC50 was 30 ± 4 µM.

Question: What about the “selectivity for HSET over KSP” value ([1]; from IC50 values, HSET vs KSP) of the same molecule?
Answer: Its value is “does not possess selectivity for HSET”.

Question: What about the IC50 [2] of the same molecule?
Answer: The IC50 was 29 ± 2 µM.

Question: `CCOC(=O)C1=C(C)NC(=S)NC1c1cccc(O)c1` (stereo not shown) [monastrol, reference compound] was tested. Which “Mitotic Arrest (%)” value [3, 5] did it give?
Answer: The value was 93%.

Question: And the “Mitotic Exit (%)” value [3, 5]?
Answer: Its value is 7%.

Question: What about the “Mitotic duration (MD)” value ([3]; rounding up to anaphase onset, cells transiting mitosis) of the same molecule?
Answer: Its value is 179 ± 68 min.

Question: And the “Bipolar Spindle (%)” value [4]?
Answer: The value was 3%.

Question: And the “Monopolar Spindle (%)” value [4]?
Answer: The value was 97%.
